Tests used:
[1] = system: cancer cells (PC3, MIA-PaCa2, A549, HCT116) and normal cells (hVSMC, BR5); assay: Cell viability of cancer and normal cells; format: cell-based, human; details: conventional chemotherapeutics, comparison
[2] = target: HSA (human serum albumin) (Homo sapiens, UniProt P02768); assay: Avasimibe binding to HSA: circular dichroism, Trp-214 fluorescence quenching, warfarin competitive binding
Excerpt: A quartz cell of 1 mm path length was used for spectrum measurement (190-260 nm). The spectra were collected with a data pitch of 1 nm, a scan speed of 10 nm per minute, and bandwidth of 1 nm. Each spectrum was the average of three scans.

PC3 cells = assay: Cell viability IC50 in PC3 cells; format: cell-based; details: Homo sapiens, PC-3
[3] = Blood bioavailability / pharmacokinetics of avasimibe by LC-MS; format: in vivo, nude mice; details: nude, mouse, whole blood; oral avasimibe 15 mg/kg; read-out: area under curve (AUC) of avasimibe
Protocol: To compare the blood-bioavailability of avasimibe for oral and intravenous administrations, avasimibe solution in PBS (15 mg/kg) was orally administered to nude mice without tumors (n=3) using a plastic feeding tube (20 GA×38 mm). Avasimin solution in PBS (75 mg/kg, containing 15 mg/kg avasimibe) was intravenously administered to nude mice without tumor (n=3) through the tail vein. Blood samples (2 μl) were collected from the dorsal pedal vein at different time points post administration. […] To extract avasimibe, acetone (6 μl) was added to the blood solution, vortexed, and then the solution was centrifuged (×5000 g, 5 min). The supernatant (6 μl) was collected and dried under vacuum. The sample was stored at −20° C., and dissolved in 50 μl of methanol just before analysis. A linear standard curve of avasimibe in blood ranging of 0.01-100 μg/ml was created using the same extraction method described above. avasimibe concentration was determined using a liquid chromatography-mass spectroscopy (LC-MS) (Agilent 1200 HPLC-Agilent 6460 QQQ mass spec). […]
Based on this model, pharmacokinetic values for avasimibe delivered by intravenous administration of avasimin were determined including the initial volume of distribution, […]
The terminal and distribution half-times for two-compartment model were measured using the equations above, described in a previous report.

[4] = Tissue distribution of avasimibe by LC-MS, 2 hr post administration; format: in vivo, PC3 tumor xenograft nude mice; details: oral avasimibe 15 mg/kg
Protocol: To measure the bioavailability of avasimibe in tissues, avasimin solution in PBS (75 mg/kg, containing 15 mg/kg avasimibe) was intravenously administered to PC3 tumor xenograft nude mice (n=3) through the tail vein. avasimibe solution in PBS (15 mg/kg) was also orally administered to PC3 tumor xenograft nude mice (n=3). At 2 hr-post injection, the mice were sacrificed, and the tissues and urine were harvested and weighed. After adding PBS (100 μl per […] tissue), the tissues were homogenized using a bead based homogenizer (Precellys®24, bertin technologies). Avasimibe was extracted from the homogenized tissue solution according to the same procedure used in avasimibe extraction from blood sample. Avasimibe in the tissue, urine, and feces specimens was quantified by LC-MS using the same conditions as the blood-bioavailability study. The amounts of avasimibe were quantitatively determined based on the calibration curve of avasimibe in blood.

MIA PaCa-2 = assay: MTT cell viability, MIA PaCa-2; format: cell-based, human
Protocol: (§1) Cell viability was measured by Thiazolyl Blue Tetrazolium Blue (MTT) colorimetric assay (Sigma). Cell migration and invasion assays were performed in Transwell chambers (Corning) coated with and without Matrigel (BD Bioscience) respectively. 20% FBS and 0.2 ng/ml EGF were used as chemoattractant. 12 h (migration) or 24 h (invasion) after cells were seeded on top of the membrane, penetrating cells were stained with PI and counted under confocal microscope.

PANC-1 = assay: MTT cell viability, PANC-1; format: cell-based, human
Protocol: as §1

HPDE6 = assay: MTT cell viability, HPDE6; format: cell-based; details: Homo sapiens; normal cells
Protocol: as §1

MIA PaCa-2 cell = assay: Transwell cell migration and invasion assays; format: cell-based, human
Protocol: as §1

pancreatic cancer cells [5] = assay: CE level in pancreatic cancer cells (Raman spectromicroscopy, ESI-MS); format: cell-based, human
Protocol: Label-free Raman spectromicroscopy, including stimulated Raman scattering (SRS) microscopy, coherent anti-stokes Raman scattering (CARS) microscopy and spontaneous Raman spectroscopy, was performed on unstained tissue slices (˜15 μm) or cells without any processing or labeling. SRS imaging was conducted using a femtosecond laser source, with the laser beating frequency tuned to the C-H stretching vibration mode at 2845 cm−1. The typical acquisition time for a 512×512 pixel image was 1.12 second.
CARS imaging and confocal Raman spectral analysis from individual LDs were performed on a single platform as described previously (40). A 5-picosecond laser at 707 nm was used as excitation beam for Raman spectral acquisition. Acquisition time for a typical spectra from individual LDs was 20 s, with the beam power maintained around 15 mW at sample. For each specimen, at least 10 spectra from individual LDs in different locations or cells were obtained.
LD amount was quantified based on the SRS images using software ImageJ. […] Area fraction of LDs out of total area of tissues or cells were measured to quantize the LD amount. […] The percentage of CE out of total lipids was used to quantize the CE level.
Lipids were extracted as described above. Cells with indicated treatments were collected and counted. […]

pancreatic cancer cells [6] = assay: Fluorescence imaging of DiI labeled LDL uptake; format: cell-based, human
Protocol: DiI labeled LDL was made following previously described method (de Smidt P C & van Berkel T J C (1990) Cancer Res 50(23):7476-7482.). Cells were cultured in medium containing 10% lipodeficient serum with or without avasimibe treatment for 2 days. Then DiI-LDL was added to the medium at 50 μg/ml for 3 hours. Fluorescence images were acquired immediately after 3 h incubation using confocal microscope. The LDL uptake was quantified using ImageJ by analyzing the area fraction of uptake LDL particles out of the total cellular area.

[7] = system: MIA PaCa-2 orthotopic tumors; assay: Orthotopic mouse model of pancreatic cancer (MIA PaCa-2 luc/mCherry); format: in vivo
Protocol: In vivo study in orthotopic mouse model: All animal experiments were conducted following protocols approved by Purdue Animal Care and Use Committee (PACUC). NOD/scid/IL2R γ null (NSG) mice were purchased from In Vivo Therapeutics Core at Indiana University Simon Cancer Center (Indiana University, IN) under a Material Transfer Agreement with Jackson Laboratories, Inc. Orthotopic mouse model of pancreatic cancer was established following previously described protocol (Gu D, et al. (2013) Mol Cancer Ther 12(6):1038-1048.). MIA PaCa-2 cells with stable expression of luciferase and mCherry were collected and suspended at a concentration of 10×10^6 cells/ml. A total of 5×10^5 tumor cells in 50 μl medium was directly injected into the pancreas of NSG mice at 4-6 weeks old. After recovery from surgery, tumor growth was monitored by bioluminescent imaging using In Vivo Imaging System (IVIS).
In these studies, mice were randomly divided into two groups. For the treatment with avasimibe at 15 mg/kg, intraperitoneal (IP) injection was used on a daily base, starting one week after tumor cell implantation. After treated for 4 weeks, all the mice were sacrificed. Tumors and metastatic lesions in abdominal cavity, lymph nodes, liver, spleen, kidney, lung and heat were visualized with IVIS by mCherry fluorescent signal. Tumor volume and weight were measured ex vivo. Histological examination was performed to tumor and organ tissue slides after stained with Hematoxylin and eosin (H&E).
Murine paraffin-embedded slides were deparaffinized and rehydrated. Then antigens were retrieved in antigen unmasking solution (Vector Laboratories) with a 2100-Retriever (PickCell Laboratories). Samples were used to TUNEL assay (Roche, 11684817910) according to manufacturer's protocol. Fluorescent images were taken using Nikon A1R confocal microscopy under 40× objective.

pancreatic cancer cells [8] = assay: Biochemical assay of free cholesterol in cells; format: cell-based, human; details: low to high concentration
Protocol: Lipid extraction from cell pellets and tissues was performed according to Folch et al (Folch J et al. (1957) J Biol Chem 226(1):497-509.). Cells with indicated treatments were collected and counted. CE and free cholesterol were measured according to the manufacturer's protocol (Amplex Red Cholesterol kit from Molecular Probes), and finally normalized by cell number.

[9] = system: GRP78, ATF4, CHOP in pancreatic cancer cells; assay: Immunoblotting of ER stress markers; format: cell-based, human; details: time course
Protocol: After indicated treatments, cells were harvested and lysed in AMI lysis buffer (Active Motif) supplemented with protease and phosphatase inhibitor cocktail. Protein concentration was determined using the Bio-Rad protein assay kit. Protein extraction was subjected to immunoblotting with the antibodies against PTEN (Cell Signaling, […]), HMG CoA reductase (Biovision, 3952-100), ACAT-1 (Santa Cruz, sc-69836), GRP78 (Santa Cruz, sc-13968), ATF4 (Cell Signaling, 11815), CHOP (Cell Signaling, 2895), p-ERK1/2 (Cell Signaling, 4370S), ERK1/2 (Cell Signaling, 9102), p-Akt (Cell Signaling, […]), Akt (Cell Signaling, 4691), caveolin-1 (Cell Signaling, […]), SREBP-1 (Santa Cruz, 13551), and β-actin (Sigma, A5441). β-Actin was used as loading control for normalization.

MIA PaCa-2 cells = assay: Annexin V/propidium iodide staining and cell cycle analysis by flow cytometry; format: cell-based, human
tumors = assay: Combination of avasimibe and gemcitabine in mice with tumors; format: in vivo; details: molar ratio about 5:1 to about 15:1 avasimibe to gemcitabine
[10] = 15 mg/kg per day intraperitoneally, 4 weeks

Chain of HSA (human serum albumin) (P02768 25-609): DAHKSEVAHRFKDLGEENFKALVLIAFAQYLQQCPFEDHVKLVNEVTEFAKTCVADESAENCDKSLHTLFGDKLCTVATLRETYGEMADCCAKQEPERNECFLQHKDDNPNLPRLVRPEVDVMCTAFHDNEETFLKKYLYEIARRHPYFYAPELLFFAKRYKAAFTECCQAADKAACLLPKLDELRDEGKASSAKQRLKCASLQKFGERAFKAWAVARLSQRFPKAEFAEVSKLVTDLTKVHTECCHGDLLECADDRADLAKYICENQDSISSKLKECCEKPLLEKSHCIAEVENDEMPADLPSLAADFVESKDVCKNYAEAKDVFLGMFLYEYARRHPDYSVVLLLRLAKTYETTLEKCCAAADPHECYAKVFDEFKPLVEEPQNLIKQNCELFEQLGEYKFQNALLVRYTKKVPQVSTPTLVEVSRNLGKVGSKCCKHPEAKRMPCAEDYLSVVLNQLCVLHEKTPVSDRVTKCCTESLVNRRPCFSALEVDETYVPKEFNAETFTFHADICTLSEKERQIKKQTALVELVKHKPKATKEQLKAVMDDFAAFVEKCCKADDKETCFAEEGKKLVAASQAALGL

## Nc1ccn([C@@H]2O[C@H](CO)[C@@H](O)C2(F)F)c(=O)n1 [gemcitabine]
[1]
  selectivity of cytotoxic effect: non-selective cytotoxic effects

## CC(C)c1cc(C(C)C)c(CC(=O)NS(=O)(=O)Oc2c(C(C)C)cccc2C(C)C)c(C(C)C)c1 [avasimibe]
[2]; avasimibe:HSA 16:1, warfarin:HSA 10:1
  replacement of warfarin at the primary binding site of HSA: complete replacement of warfarin
[2]; inferred from complete replacement of warfarin
  binding affinity to HSA, compared with warfarin: > 189000 M⁻¹
PC3 cells
  IC50: 17 µM
[3]
  AUC: 3250 ng·h/mL
[4]
  excretion of avasimibe through feces: considerable amount of avasimibe was excreted through the feces
[4]; 2 hr
  avasimibe in the tumor tissue: not detectable
  main tissue of avasimibe distribution: most avasimibe was found in the liver tissue
MIA PaCa-2; 10 μM
  proliferation rate of MIA PaCa-2 cells: significantly reduced the proliferation rate
MIA PaCa-2; Homo sapiens, MIA PaCa-2
  IC50: 11 µM
PANC-1; 10 μM
  proliferation rate of PANC-1 cells: significantly reduced the proliferation rate
PANC-1; Homo sapiens, PANC-1
  IC50: 23.6 µM
HPDE6
  IC50: 52.8 µM
MIA PaCa-2 cell; transwell with Matrigel, 24 h
  cell invasion rate: significantly reduced
MIA PaCa-2 cell; transwell, 12 h
  cell migration rate: significantly reduced
Pancreatic cancer cells [5]
  CE level in pancreatic cancer cells: effectively removed CE
Pancreatic cancer cells [6]
  uptake of DiI labeled LDL: significantly reduced uptake of LDL
[7]; 15 mg/kg per day intraperitoneally
  CE amount in tumor (SRS imaging and Raman): Reduction of CE amount
[7]; [10]
  body weight: did not induce body weight loss
  metastatic lesions in lymph nodes and distant organs: largely suppressed
  tumor size, tumor growth rate, tumor volume and weight: significantly suppressed
[7]; mouse, in vivo
  apoptotic cells in tumor tissues (TUNEL): Increased apoptotic cells
  free cholesterol in mouse pancreatic tumor tissues: Increased free cholesterol
Pancreatic cancer cells [8]
  free cholesterol levels in cells: gradually increased
[9]
  ATF4 level: increase of transcription factor ATF4 within 12 hours
  CHOP expression: appeared after 12 hour treatment and increased from 12 to 48 hour
  GRP78 expression level: gradually increased over time
MIA PaCa-2 cells
  number of apoptotic cells: largely increased
tumors
  effect in combination with gemcitabine: synergistic effect

Source: patent US20160199497A1, “Cholesterol Ester-Depleting Nanomedicine for Non-toxic Cancer Chemotherapy” (Purdue Research Foundation, priority 2014, published 2016)
